Columns and labels:
[1] = prior art; cited from earlier work
[2] = system: Z. bailii; assay: Antimicrobial efficacy of emulsions, growth measured by optical density at 600 nm; assay type: cell-based, Zygosaccharomyces bailii; details: time course; 45.5 ppm thyme oil and 13 ppm LAE emulsion, or 13 ppm lauric arginate alone; FIG. 4
Procedure: Antimicrobial efficacy of emulsions of the invention is assessed by back diluting a mid-log phase, overnight culture of Z. bailii 1:100 into fresh acidified (pH 5) yeast peptone dextrose broth and adding the appropriate concentration of emulsion. Emulsions are prepared and tested in duplicate. Controls of lauric arginate are prepared in the same buffer with corn oil substituted for essential oil, at the same concentration. To test thyme oil alone, ethanol is used as a vehicle to solubilize the thyme oil in the microbiological media.
The antimicrobial efficacy of the formulations was evaluated against the relevant spoilage organism Z. bailii after 72 hours of incubation, as measured by optical density at 600 nm. See FIG. 3 which compares the growth of Z. bailii under differing conditions. Z. bailii was treated to emulsions comprising 52.5 ppm Thyme oil and 15 ppm lauric arginate (LAE); 52.5 ppm Thyme essential oil alone; or 15 ppm lauric arginate alone. […]
Additional studies were conducted in order to ascertain the temporal component of lauric arginate activity. […] Cells are treated to 45.5 ppm Thyme oil and 13 ppm lauric arginate (LAE) emulsion; 45.5 ppm Thyme essential oil alone; or 13 ppm lauric arginate alone, and the OD600 of the cultures were measured over time. […]

For Cc1ccc(C(C)C)cc1O [carvacrol], the “level at which synergy with lauric arginate was reported” value [1] is given as 60 ppm.

For CCCCCCCCCCCC(=O)N[C@@H](CCCN=C(N)N)C(=O)OCC [lauric arginate, Lauric arginate], the “growth inhibition over time (OD600)” value [2] was “not inhibitory”.

In the case of Cc1ccc(C(C)C)c(O)c1 [thymol], the “synergy with lauric arginate” value [1] is listed as “not to possess synergy”.

Source: patent US12016340B2, “Synergistic antimicrobial formulation consisting of plant extract and lauric arginate” (KALAMAZOO HOLDINGS, INC., priority 2019, dated 2024)
